Assay results as given in patent US20210102239A1, “METHOD FOR DETERMINING BACTERIAL NUMBER IN SPECIMEN” (MITSUI CHEMICALS, INC., priority 2017, published 2021).

Key:
Enterobacter aerogenes [1] = assay: drug sensitivity test of the pathogenic bacterium from blood culture; format: cell-based; details: Case 7, isolate from blood specimen sampled before antibiotic treatment
Method: (§1) According to Step 1 to Step 5 of Example 1, a pathogenic bacterium rapid identification/quantification test using sepsis patient's specimens (EDTA blood collection tube, 2 mL) was carried out. […] Blood was sampled before treatment with an antibiotic (pretreatment), and 24 hours (after 24 hrs.) and 72 hours (after 72 hrs.) after administration of the antibiotic. At the three points, a pathogenic bacterium rapid identification/quantification test was carried out together with measurement of body temperature, white blood cell count, CRP, presepsin and IL-6. Furthermore, a blood specimen sampled before the antibiotic treatment was subjected to a blood culture method to identify a pathogenic bacterium and subjected to a drug sensitivity test. General information about individual cases is as follows.

Escherichia coli [2] = assay: Case 3: pathogen count (nested PCR) and biomarkers in blood before/after antibiotic treatment; format: in vivo, human (sepsis patient); details: for CRP: pretreatment 1.1; for BT (body temperature): pretreatment 39.6; for WBC: pretreatment 168.3; for Presepsin: pretreatment 343; for IL-6: pretreatment 678; for Pathogen (Ave): pretreatment 3600
Method: (§2) First, bacterial cells were collected from a blood specimen by centrifuging the whole blood at a low rate of 100×g for 5 minutes to separate blood cells, centrifuging the resultant supernatant (containing buffy coat) at a high rate of 20,000×g for 10 minutes to obtain a pellet.
(§3) Using DNA of a pathogenic bacterium taken from the blood specimen according to the method of Step 1 as a template, nested PCR (1st PCR: 30 cycle→100 double dilution→2nd PCR: 30 to 35 cycles) is carried out. The bacterial cells in patient specimens vary in a wide range from very small to large number. Since it is difficult to accurately determine the bacterial number in a single cycle of PCR, nested PCR methods are used in combination.
(§4) Subsequently, using pathogenic bacterium DNA of Step 1 as a template, nested PCR was carried out together with a quantification control in the conditions described in Step 2. In the 1st PCR and 2nd PCR for quantification, the following bacterial universal primer (primer for detecting almost all bacteria) was used. The target region of the bacterial universal primer is a bacterial conserved region (base sequence region common in almost all bacteria) of a 16S ribosomal RNA gene. A predetermined bacterium is quantified by a bacterial species-specific primer; however, a pathogenic bacterium is not identified in the early stage of sepsis. Because of this, a bacterial species-specific primer cannot be used. Accordingly, unless a bacterial universal primer is used, an unidentified bacterium cannot be detected.
As mentioned above, E. coli DNA samples of three different concentrations and of a known bacterial number were used as quantification controls. Based on the data of three quantification controls different in concentration, a calibration curve was prepared. Based on bacterial DNA extracted from a patient specimen, the number of pathogenic bacterial cells was determined. Since the number of bacterial cells was obtained as an E. coli cell-number equivalent used as a quantification control, the number of bacterial cells in a specimen can be more easily, rapidly and accurately determined.
as §1, with “4” for “5”, “quantification” for “identification/quantification”
Case 3: • person, sepsis associated with urinary tract infection • blood culture/urine culture: Escherichia coli • antibiotics substance: tazobactam/piperacillin (sensitive)

Enterobacter aerogenes [3] = assay: Case 7: pathogen identification/quantification and biomarkers in blood before/after antibiotic treatment; format: in vivo, human (sepsis patient); details: for BT (body temperature): pretreatment 38.8; for WBC: pretreatment 59.4; for CRP: pretreatment 72.3; for Presepsin: pretreatment 1322; for Pathogen (Ave): pretreatment 41083; for IL-6: pretreatment 238000
Method: as §2, §3, §4
(§5) As mentioned above, E. coli DNA samples of three different concentrations and of a known bacterial number were used as quantification controls. Based on the data of three quantification controls different in concentration, a calibration curve was prepared. Based on bacterial DNA extracted from a patient specimen, the number of pathogenic bacterial cells was determined.
(§6) For the reason, it is necessary to make a correction based on the operon copy number per bacterium species in order to more accurately determine bacterial number. Since identification and qualification of a pathogenic bacterium are carried out concurrently in Step 3 and Step 4, the number of pathogenic bacterial cells can be corrected based on 16S ribosomal RNA operon copy number of the bacterium identified to computationally obtain the correct number of bacterial cells.
as §1

Escherichia coli [4] = assay: drug sensitivity test of the pathogenic bacterium from blood culture; format: cell-based; details: isolate from blood specimen sampled before antibiotic treatment
Method: as §1, with “4” for “5”, “quantification” for “identification/quantification”
According to Step 1 to Step 5 of Example 1, a pathogenic bacterium rapid identification/quantification test using sepsis patient's specimens (EDTA blood collection tube, 2 mL) was carried out. […] Blood was sampled before treatment with an antibiotic (pretreatment), and 24 hours (after 24 hrs.) and 72 hours (after 72 hrs.) after administration of the antibiotic. At the three points, a pathogenic bacterium rapid identification/quantification test was carried out together with measurement of body temperature, white blood cell count, CRP, presepsin and IL-6. […]

Escherichia coli [5] = assay: Case 5: pathogen identification/quantification and biomarkers in blood before/after antibiotic treatment; format: in vivo, human (sepsis patient); details: for CRP: pretreatment 1.1; for BT (body temperature): pretreatment 39.6; for WBC: pretreatment 168.3; for Presepsin: pretreatment 343; for IL-6: pretreatment 678; for Pathogen (Ave): pretreatment 3600
Method: as §2, §3, §4, §5, §6, §1

[6] = system: Streptococcus dysgalactiae; assay: Case 6: pathogen identification/quantification and biomarkers in blood before/after antibiotic treatment; format: in vivo, human (sepsis patient); details: for BT (body temperature): pretreatment 39.7; for WBC: pretreatment 89.5; for IL-6: pretreatment 115; for CRP: pretreatment 136.1; for Presepsin: pretreatment 1373; for Pathogen (Ave): pretreatment 2651
Method: as §2, §3, §4, §5, §6, §1

Substance: tazobactam/piperacillin
- drug sensitivity (Enterobacter aerogenes [1]): sensitive
- CRP (Escherichia coli [2]; Case 3, 24 h after antibiotic): 9.3 mg/L
- BT (body temperature) (Escherichia coli [2]; Case 3, 24 h after antibiotic): 36.6 °C
- WBC (Escherichia coli [2]; Case 3, 24 h after antibiotic): 61.4 × 100/μL
- Presepsin (Escherichia coli [2]; Case 3, 24 h after antibiotic): 267 ng/mL
- IL-6 (Escherichia coli [2]; Case 3, 24 h after antibiotic): 5 pg/mL
- Pathogen (Ave) (Escherichia coli [2]; Case 3, 24 h after antibiotic): 2102 cells/ml
- CRP (Escherichia coli [2]; Case 3, 72 h after antibiotic): 2.9 mg/L
- BT (body temperature) (Escherichia coli [2]; Case 3, 72 h after antibiotic): 37.2 °C
- WBC (Escherichia coli [2]; Case 3, 72 h after antibiotic): 49.2 × 100/μL
- Presepsin (Escherichia coli [2]; Case 3, 72 h after antibiotic): 501 ng/mL
- IL-6 (Escherichia coli [2]; Case 3, 72 h after antibiotic): 6.3 pg/mL
- Pathogen (Ave) (Escherichia coli [2]; Case 3, 72 h after antibiotic): 2 cells/ml
- BT (body temperature) (Enterobacter aerogenes [3]; Case 7, 24 h after antibiotic): 38.4 °C
- WBC (Enterobacter aerogenes [3]; Case 7, 24 h after antibiotic): 258.5 × 100/μL
- CRP (Enterobacter aerogenes [3]; Case 7, 24 h after antibiotic): 107 mg/L
- Presepsin (Enterobacter aerogenes [3]; Case 7, 24 h after antibiotic): 1516 ng/mL
- Pathogen (Ave) (Enterobacter aerogenes [3]; Case 7, 24 h after antibiotic): 19156 cells/ml
- IL-6 (Enterobacter aerogenes [3]; Case 7, 24 h after antibiotic): 41700 pg/mL
- BT (body temperature) (Enterobacter aerogenes [3]; Case 7, 72 h after antibiotic): 36.4 °C
- WBC (Enterobacter aerogenes [3]; Case 7, 72 h after antibiotic): 198.2 × 100/μL
- CRP (Enterobacter aerogenes [3]; Case 7, 72 h after antibiotic): 241.4 mg/L
- Presepsin (Enterobacter aerogenes [3]; Case 7, 72 h after antibiotic): 2473 ng/mL
- Pathogen (Ave) (Enterobacter aerogenes [3]; Case 7, 72 h after antibiotic): 59 cells/ml
- IL-6 (Enterobacter aerogenes [3]; Case 7, 72 h after antibiotic): 176 pg/mL
- drug sensitivity (Escherichia coli [4]): sensitive
- CRP (Escherichia coli [5]; Case 5, 24 h after antibiotic): 9.3 mg/L
- BT (body temperature) (Escherichia coli [5]; Case 5, 24 h after antibiotic): 36.6 °C
- WBC (Escherichia coli [5]; Case 5, 24 h after antibiotic): 61.4 × 100/μL
- Presepsin (Escherichia coli [5]; Case 5, 24 h after antibiotic): 267 ng/mL
- IL-6 (Escherichia coli [5]; Case 5, 24 h after antibiotic): 5 pg/mL
- Pathogen (Ave) (Escherichia coli [5]; Case 5, 24 h after antibiotic): 2102 cells/ml
- CRP (Escherichia coli [5]; Case 5, 72 h after antibiotic): 2.9 mg/L
- BT (body temperature) (Escherichia coli [5]; Case 5, 72 h after antibiotic): 37.2 °C
- WBC (Escherichia coli [5]; Case 5, 72 h after antibiotic): 49.2 × 100/μL
- Presepsin (Escherichia coli [5]; Case 5, 72 h after antibiotic): 501 ng/mL
- IL-6 (Escherichia coli [5]; Case 5, 72 h after antibiotic): 6.3 pg/mL
- Pathogen (Ave) (Escherichia coli [5]; Case 5, 72 h after antibiotic): 2 cells/ml
- BT (body temperature) ([6]; Case 6, 24 h after antibiotic): 37.0 °C
- WBC ([6]; Case 6, 24 h after antibiotic): 77.3 × 100/μL
- IL-6 ([6]; Case 6, 24 h after antibiotic): 85.3 pg/mL
- CRP ([6]; Case 6, 24 h after antibiotic): 139.8 mg/L
- Presepsin ([6]; Case 6, 24 h after antibiotic): 854 ng/mL
- Pathogen (Ave) ([6]; Case 6, 24 h after antibiotic): 308 cells/ml
- BT (body temperature) ([6]; Case 6, 72 h after antibiotic): 37.2 °C
- WBC ([6]; Case 6, 72 h after antibiotic): 54.1 × 100/μL
- IL-6 ([6]; Case 6, 72 h after antibiotic): 59.4 pg/mL
- CRP ([6]; Case 6, 72 h after antibiotic): 43.2 mg/L
- Presepsin ([6]; Case 6, 72 h after antibiotic): 708 ng/mL
- Pathogen (Ave) ([6]; Case 6, 72 h after antibiotic): 20 cells/ml
